Results from ChEMBL document CHEMBL4049404, “Discovery of (R)-1-(3-(4-Amino-3-(3-chloro-4-(pyridin-2-ylmethoxy)phenyl)-1H-pyrazolo[3,4-d]pyrimidin-1-yl)piperidin-1-yl)prop-2-en-1-one (CHMFL-EGFR-202) as a Novel Irreversible EGFR Mutant Kinase Inhibitor with a Distinct Binding Mode” (J Med Chem, 2017).

Key:
[1] = molecular target: T1, Tyrosine-protein kinase Blk (Homo sapiens, UniProt P51451); test: Binding affinity to wild-type human BLK expressed in bacterial system assessed as control score at 1 uM by KINOMEScan assay
Target sequence in this assay (P51451 2-505 limits assumed): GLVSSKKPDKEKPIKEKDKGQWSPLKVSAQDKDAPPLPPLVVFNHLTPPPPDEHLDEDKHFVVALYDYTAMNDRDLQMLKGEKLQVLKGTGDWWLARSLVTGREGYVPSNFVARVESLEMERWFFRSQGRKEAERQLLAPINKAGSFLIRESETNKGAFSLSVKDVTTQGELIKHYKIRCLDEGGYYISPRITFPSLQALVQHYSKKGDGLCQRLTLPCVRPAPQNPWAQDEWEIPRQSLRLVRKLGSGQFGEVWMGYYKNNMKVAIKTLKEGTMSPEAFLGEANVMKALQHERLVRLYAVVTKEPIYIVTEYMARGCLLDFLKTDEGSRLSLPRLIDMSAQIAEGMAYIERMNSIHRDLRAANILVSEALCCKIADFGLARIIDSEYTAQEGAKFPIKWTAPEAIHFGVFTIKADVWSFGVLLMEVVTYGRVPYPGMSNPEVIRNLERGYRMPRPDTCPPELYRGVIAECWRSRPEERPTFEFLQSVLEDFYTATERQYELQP

[2] = molecular target: T2, Epidermal growth factor receptor (Homo sapiens, UniProt P00533); test: Inhibition of recombinant human GST-tagged EGFR cytoplasmic domain expressed in baculovirus by Z'-LYTE assay
T2 sequence (P00533 whole entry, the tested form may be a part): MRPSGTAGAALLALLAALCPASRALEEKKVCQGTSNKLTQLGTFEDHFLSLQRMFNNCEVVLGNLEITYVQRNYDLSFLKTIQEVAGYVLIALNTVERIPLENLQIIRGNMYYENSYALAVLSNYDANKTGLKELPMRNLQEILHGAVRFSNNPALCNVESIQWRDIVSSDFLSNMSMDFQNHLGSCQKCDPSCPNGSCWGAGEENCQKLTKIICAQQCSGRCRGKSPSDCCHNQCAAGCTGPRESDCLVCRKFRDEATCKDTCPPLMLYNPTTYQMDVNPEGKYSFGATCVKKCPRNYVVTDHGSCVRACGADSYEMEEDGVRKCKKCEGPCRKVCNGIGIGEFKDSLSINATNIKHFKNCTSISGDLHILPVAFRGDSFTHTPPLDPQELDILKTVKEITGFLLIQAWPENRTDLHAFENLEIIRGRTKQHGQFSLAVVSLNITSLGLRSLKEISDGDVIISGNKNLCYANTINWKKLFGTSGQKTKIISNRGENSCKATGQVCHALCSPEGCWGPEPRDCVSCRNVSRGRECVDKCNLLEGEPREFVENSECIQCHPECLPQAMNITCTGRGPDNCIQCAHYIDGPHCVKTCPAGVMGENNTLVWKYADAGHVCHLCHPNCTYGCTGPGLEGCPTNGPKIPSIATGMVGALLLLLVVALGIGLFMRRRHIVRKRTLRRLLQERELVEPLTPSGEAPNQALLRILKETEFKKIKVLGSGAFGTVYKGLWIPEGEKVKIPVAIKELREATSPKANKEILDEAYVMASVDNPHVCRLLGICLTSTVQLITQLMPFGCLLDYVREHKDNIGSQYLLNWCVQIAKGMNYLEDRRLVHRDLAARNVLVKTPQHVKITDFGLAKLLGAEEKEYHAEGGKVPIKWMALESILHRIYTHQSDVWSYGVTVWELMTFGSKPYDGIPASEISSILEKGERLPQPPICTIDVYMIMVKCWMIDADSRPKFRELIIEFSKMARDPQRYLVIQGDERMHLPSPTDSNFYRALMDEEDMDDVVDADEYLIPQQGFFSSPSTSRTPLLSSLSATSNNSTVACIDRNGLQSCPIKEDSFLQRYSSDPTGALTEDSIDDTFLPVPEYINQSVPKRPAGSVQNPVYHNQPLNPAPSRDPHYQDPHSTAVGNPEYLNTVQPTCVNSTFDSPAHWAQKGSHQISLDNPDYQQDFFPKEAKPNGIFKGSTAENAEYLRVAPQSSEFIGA

[3] = molecular target: T2, Epidermal growth factor receptor; test: Inhibition of wild-type EGFR in human A549 cells assessed as reduction in 4EBP1 phosphorylation at Thr37/46 site at 0.01 to 3 uM by Western blot analysis; format: cell-based; conditions: a549, 3 µM
Rattus norvegicus = test: AUC (0 to t) in Sprague-Dawley rat plasma at 10 mg/kg, po after 24 hrs; format: ADME, organism-based; set-up: dose 10 mg/kg, time < 24 hr, route oral; conditions: in vivo
[4] = molecular target: Dual specificity mitogen-activated protein kinase kinase 1 (Homo sapiens, UniProt Q02750); test: Binding affinity to full-length human MEK1 expressed in mammalian system assessed as control score at 1 uM by KINOMEScan assay
Chain of Dual specificity mitogen-activated protein kinase kinase 1 (Q02750 whole entry): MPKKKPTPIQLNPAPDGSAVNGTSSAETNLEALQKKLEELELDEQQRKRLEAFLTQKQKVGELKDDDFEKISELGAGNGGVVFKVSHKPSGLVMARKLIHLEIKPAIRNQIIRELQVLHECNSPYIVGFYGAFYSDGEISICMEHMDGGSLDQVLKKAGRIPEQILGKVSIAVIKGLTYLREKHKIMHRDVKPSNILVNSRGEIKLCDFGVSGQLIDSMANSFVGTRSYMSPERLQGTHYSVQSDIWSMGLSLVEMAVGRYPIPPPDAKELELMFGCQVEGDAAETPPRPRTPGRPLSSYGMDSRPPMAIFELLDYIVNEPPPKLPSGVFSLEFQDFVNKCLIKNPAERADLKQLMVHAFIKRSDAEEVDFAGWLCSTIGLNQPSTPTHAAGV

[5] = molecular target: Epidermal growth factor receptor (Homo sapiens, UniProt P00533, EX19DEL); test: Inhibition of EGFR exon 19 deletion mutant in human PC9 cells assessed as reduction in ERK phosphorylation at Thr202/Tyr204 measured after 4 hrs by Western blot analysis; format: cell-based
Chain of Epidermal growth factor receptor (Homo sapiens, UniProt P00533, EX19DEL) (P00533 whole entry, looked up, stated change not applied): as the sequence (P00533 whole entry, the tested form may be a part) above

[6] = molecular target: T2, Epidermal growth factor receptor; test: Inhibition of wild-type EGFR in human A549 cells assessed as reduction in Akt phosphorylation at 308 site at 0.01 to 3 uM by Western blot analysis; format: cell-based; conditions: a549, 3 µM
[7] = molecular target: T2, Epidermal growth factor receptor; test: Inhibition of wild-type EGFR in human NCI-H2122 cells assessed as reduction in Akt phosphorylation at 308 site at 0.01 to 3 uM by Western blot analysis; format: cell-based
[8] = molecular target: T2, Epidermal growth factor receptor; test: Inhibition of wild type EGFR autophosphorylation at Y1068 in human NCI-H2122 cells at 0.01 to 3 uM after 4 hrs by Western blot analysis; format: cell-based
[9] = molecular target: T1, Tyrosine-protein kinase Blk; test: Inhibition of full-length recombinant human His-tagged BLK expressed in baculovirus by Z'-LYTE assay
Target sequence in this assay (P51451 whole entry, the tested form may be a part): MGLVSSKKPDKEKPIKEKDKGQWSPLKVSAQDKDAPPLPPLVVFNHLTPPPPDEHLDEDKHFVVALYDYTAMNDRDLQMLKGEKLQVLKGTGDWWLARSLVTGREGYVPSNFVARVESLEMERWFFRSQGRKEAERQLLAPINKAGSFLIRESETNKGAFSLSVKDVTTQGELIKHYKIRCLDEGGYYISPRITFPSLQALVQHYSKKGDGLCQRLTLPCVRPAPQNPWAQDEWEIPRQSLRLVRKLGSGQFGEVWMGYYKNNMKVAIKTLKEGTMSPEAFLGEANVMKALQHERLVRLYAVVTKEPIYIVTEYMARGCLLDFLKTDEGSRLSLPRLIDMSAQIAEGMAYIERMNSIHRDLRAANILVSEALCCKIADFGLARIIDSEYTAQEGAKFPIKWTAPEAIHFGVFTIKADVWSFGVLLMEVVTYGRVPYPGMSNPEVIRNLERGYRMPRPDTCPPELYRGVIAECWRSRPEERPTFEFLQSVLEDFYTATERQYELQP

[10] = molecular target: T2, Epidermal growth factor receptor; test: Inhibition of wild-type EGFR in human A549 cells assessed as reduction in Akt phosphorylation at 473 site at 0.01 to 3 uM by Western blot analysis; format: cell-based; conditions: a549, 3 µM
[11] = molecular target: T2, Epidermal growth factor receptor; test: Inhibition of wild-type EGFR in human NCI-H2122 cells assessed as reduction in ERK phosphorylation at Thr202/Tyr204 site at 0.01 to 3 uM by Western blot analysis; format: cell-based
[12] = molecular target: Insulin-like growth factor 1 receptor (Homo sapiens) (UniProt P08069); test: Inhibition of Tel-fused IGF1R (unknown origin) expressed in mouse BAF3 cells assessed as growth inhibition after 72 hrs by CellTiter-Glo assay; format: cell-based
[13] = molecular target: T2, Epidermal growth factor receptor; test: Inhibition of wild-type EGFR in human NCI-H2122 cells assessed as reduction in eIF4E phosphorylation at Ser209 site at 0.01 to 3 uM by Western blot analysis; format: cell-based
[14] = molecular target: T2, Epidermal growth factor receptor; test: Inhibition of wild-type EGFR in human H1355 cells assessed as growth inhibition after 72 hrs by CellTiter-Glo assay; format: cell-based
[15] = molecular target: T2, Epidermal growth factor receptor; test: Inhibition of wild-type EGFR in human A549 cells assessed as reduction in STAT3 phosphorylation at Y705 site at 0.01 to 3 uM by Western blot analysis; format: cell-based; conditions: a549, 3 µM
[16] = molecular target: Epidermal growth factor receptor (Homo sapiens, UniProt P00533, L858R/T790M); test: Inhibition of EGFR L858R/T790M mutant in human NCI-H1975 cells assessed as reduction in ERK phosphorylation at Thr202/Tyr204 measured after 4 hrs by Western blot analysis; format: cell-based
Chain of Epidermal growth factor receptor (Homo sapiens, UniProt P00533, L858R/T790M) (P00533 25-1210 T790M/L858R limits assumed): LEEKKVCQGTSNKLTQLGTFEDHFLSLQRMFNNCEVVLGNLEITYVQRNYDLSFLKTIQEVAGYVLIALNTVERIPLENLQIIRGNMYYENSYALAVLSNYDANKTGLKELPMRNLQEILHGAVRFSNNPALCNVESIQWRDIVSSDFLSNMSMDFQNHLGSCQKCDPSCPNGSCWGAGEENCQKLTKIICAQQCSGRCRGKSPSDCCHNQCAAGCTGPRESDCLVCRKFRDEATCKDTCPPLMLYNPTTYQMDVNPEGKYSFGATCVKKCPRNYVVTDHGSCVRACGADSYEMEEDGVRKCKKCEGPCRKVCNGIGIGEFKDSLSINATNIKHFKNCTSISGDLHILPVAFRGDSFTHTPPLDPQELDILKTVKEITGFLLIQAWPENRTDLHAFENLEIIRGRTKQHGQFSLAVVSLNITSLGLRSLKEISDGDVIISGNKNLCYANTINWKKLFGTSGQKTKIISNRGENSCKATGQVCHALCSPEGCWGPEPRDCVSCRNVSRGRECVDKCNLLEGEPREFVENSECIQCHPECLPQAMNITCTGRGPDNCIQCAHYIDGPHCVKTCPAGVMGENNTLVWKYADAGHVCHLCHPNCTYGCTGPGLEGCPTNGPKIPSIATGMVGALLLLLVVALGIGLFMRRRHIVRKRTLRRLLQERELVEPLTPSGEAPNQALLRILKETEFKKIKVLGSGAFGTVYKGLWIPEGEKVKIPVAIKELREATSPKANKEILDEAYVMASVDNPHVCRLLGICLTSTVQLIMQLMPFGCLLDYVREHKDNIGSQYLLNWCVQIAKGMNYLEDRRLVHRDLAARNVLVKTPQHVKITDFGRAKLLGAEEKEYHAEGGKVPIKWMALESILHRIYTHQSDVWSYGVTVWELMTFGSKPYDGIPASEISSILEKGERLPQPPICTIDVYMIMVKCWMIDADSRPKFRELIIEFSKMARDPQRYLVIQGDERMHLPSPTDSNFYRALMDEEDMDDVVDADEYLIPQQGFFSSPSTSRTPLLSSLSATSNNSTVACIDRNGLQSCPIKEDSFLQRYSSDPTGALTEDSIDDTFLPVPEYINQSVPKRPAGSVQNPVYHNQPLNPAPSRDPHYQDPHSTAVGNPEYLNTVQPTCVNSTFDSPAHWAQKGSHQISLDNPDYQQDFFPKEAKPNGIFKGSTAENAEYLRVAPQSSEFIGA

[17] = Apparent plasma clearance in Sprague-Dawley rat after 24 hrs at 10 mg/kg, po; format: ADME, organism-based

## C=CC(=O)N1CCC[C@@H](n2nc(-c3ccc(OCc4ccccn4)c(Cl)c3)c3c(N)ncnc32)C1
[1]
  Activity: 0.7%
[2]
  IC50: 8.3 nM
[3]
  inhibition (INH): Not Active
Rattus norvegicus
  AUCt: 130 to 415 ng/mL/h
[4]
  Activity: 0.4%
[5]
  EC50: < 10 nM
[6]
  inhibition (INH): Not Active
[7]
  inhibition (INH): Not Active
[8]
  inhibition (INH): Active
[9]
  IC50: 8.1 nM
[10]
  inhibition (INH): Not Active
[11]
  inhibition (INH): Not Active
[12]
  GI50: > 10000 nM
[13]
  inhibition (INH): Not Active
[14]
  GI50: > 10000 nM
[15]
  inhibition (INH): Not Active
[16]
  EC50: < 10 nM
[17]
  CL/F: 406 mL/min/kg
